Measured values published in patent US6455587B1 (priority 2000, dated 2002).

Target: T1, recombinant HIV-1 protease (Human immunodeficiency virus type 1 group M subtype B, UniProt P04585)
T1 construct: recombinant HIV-1 protease (final concentration 2.18 nM) purchased from Bachem Bioscience; purchased Bachem Bioscience
Assay: Enzymatic fluorometric (FRET) assay for determining the inhibition constant (Ki) against HIV protease
Format: biochemical
Conditions: Ki (nM)
Excerpt: An Enzymatic assay for determining the inhibition constant (Ki) of synthetic compounds targeting the HIV protease may be carried out as follows: This is a fluorometric assay based on the cleavage by protease of a substrate carrying a donor group (EDANS) and an acceptor group (DABCYL) on each side of the cleavage site, interacting together through fluorescence resonance energy transfer (FRET). Cleavage of the substrate by protease stops energy exchange between the two groups, resulting in a time-dependent increase in fluorescence intensity that is linearly related to the extent of substrate hydrolysis.
The enzymatic assay is done at 31° C. in white 96-well fluorescence microplates, in a total volume of 200 μL per well. The apparatus used for analysis is a FL600 fluorescence microplate reader (Biotek Instruments). […] Excitation of the fluorophore is done at 340 nm and emission at 485 nm is recorded continuously during the reaction, allowing determination of the enzyme's initial velocity (v0). At the end of the 4 min incubation, the potential inhibitor at a defined concentration in a volume of 4 μL is added to the reaction, and fluorescence readings are taken for another 4 min, allowing determination of enzyme velocity (vi) in the presence of the inhibitory compound. Several concentrations of the putative inhibitors are tested in the assay. After calculation of v0 and vi, the inhibition constant (Ki) of the compound is determined using the equation of Henderson: [formula]
and [I]=inhibitor concentration, [S]=substrate concentration,
Km=Michaelis-Menten constant, Kiapp=apparent Ki
Graphs are traced and the Ki determined using GraphPad Prism software v. 3.0.

| Compound | Ki [nM] |
| --- | --- |
| Cc1ccc(S(=O)(=O)N(CC(C)C)C(CCCCNC(=O)OCC2c3ccccc3-c3ccccc32)C(=O)O)cc1 (racemic) [Compound 2, Nα-Isobutyl-Nα-(4-methylbenzenesulfonyl)-Nε-(9-fluorenylmethoxycarbonyl)-DL-lysine] | 5 |
| Cc1ccc(S(=O)(=O)N(CC(C)C)C(CCCNC(=O)OCC2c3ccccc3-c3ccccc32)C(=O)O)cc1 (racemic) [Compound 6, Nα-Isobutyl-Nα-(4-methylbenzenesulfonyl)-Nδ-(9-fluorenylmethoxycarbonyl)-DL-ornithine] | 180 |
| Cc1ccc(S(=O)(=O)N(CC(C)C)C(CCCCN(CC(C)C)C(=O)CCc2ccccc2)C(=O)O)cc1 (racemic) [Compound 159, Nα, Nε-diisobutyl-Nα-(4-methylbenzenesulfonyl)-Nε-(3-phenylpropanoyl)-DL-lysine] | > 300 |
| CC(C)CN([C@@H](CCCCNC(=O)OCC1c2ccccc2-c2ccccc21)C(=O)O)S(=O)(=O)c1ccc(C(C)(C)C)cc1 [Compound 10, Nα-Isobutyl-Nα-(4-tert-butylbenzenesulfonyl)-Nε-(9-fluorenylmethoxycarbonyl)-L-lysine] | 257 |

Same assay, conditions: fluorometric FRET assay, 31° C., pH 4.7, recombinant HIV-1 protease 2.18 nM, substrate 10 μM; read-out: Ki

| Compound | Ki [nM] |
| --- | --- |
| Cc1ccc(S(=O)(=O)N(CC(C)C)C(CCCCNC(CCc2ccccc2)=NC#N)C(=O)O)cc1 (racemic) [Compound 204, Nα-Isobutyl-Nα-(4-methylbenzenesuIfonyl)-Nε-(dihydrothiocinnamoyl-N-cyanoamidine)-DL-lysine] | 34 |

Same assay, conditions: fluorometric FRET assay, recombinant HIV-1 protease, pH 4.7, 31° C.; read-out: Ki

| Compound | Ki [nM] |
| --- | --- |
| CC(C)CN(C(CCCCNC(=O)OCC1c2ccccc2-c2ccccc21)C(=O)O)S(=O)(=O)c1ccc(Cl)cc1 (racemic) [Compound 1, Nα-Isobutyl-Nα-(4-chlorobenzenesulfonyl)-Nε-(9-fluorenylmethoxycarbonyl)-DL-lysine] | 20.5 |
| CC(C)CN(C(CCCCNC(=O)OCC1c2ccccc2-c2ccccc21)C(=O)O)S(=O)(=O)c1ccc(F)cc1 (racemic) [Compound 3, Nα-Isobutyl-Nα-(4-fluorobenzenesulfonyl)-Nε-(9-fluorenylmethoxycarbonyl)-DL-lysine] | 17.4 |
| CC(C)CN(C(CCCCNC(=O)OCc1ccccc1)C(=O)O)S(=O)(=O)c1ccc(I)cc1 (racemic) [Compound 48, Nα-Isobutyl-Nα-(4-iodobenzenesulfonyl)-Nε-benzyloxycarbonyl-DL-lysine] | > 100 |
| Cc1ccc(S(=O)(=O)N(CC(C)C)C(CCCCNC(=S)CCc2ccccc2)C(=O)O)cc1 (racemic) [Compound 153, Nα-Isobutyl-Nα-(4-methylbenzenesulfonyl)-Nε-dihydrothiocinnamoyl-DL-lysine] | 151 |
| Cc1ccc(S(=O)(=O)N(CC(C)C)C(CCCCNC(CCc2ccccc2)=NC#N)C(=O)O)cc1 (racemic) [Compound 204, Nα-Isobutyl-Nα-(4-methylbenzenesuIfonyl)-Nε-(dihydrothiocinnamoyl-N-cyanoamidine)-DL-lysine] | > 200000 |
| CC(C)CN([C@@H](CCCCNC(=O)OCC1c2ccccc2-c2ccccc21)C(=O)O)S(=O)(=O)c1ccc(Br)cc1 [Compound 4, Nα-Isobutyl-Nα-(4-bromobenzenesulfonyl)-Nε-(9-fluorenylmethoxycarbonyl)-L-lysine] | 11.4 |
| CC(C)CN(C(CCCCNC(=O)OCc1ccccc1)C(=O)O)S(=O)(=O)c1ccc(Cl)cc1 (centres unmarked) [Compound 4] | > 100 |
| COc1ccc(S(=O)(=O)N(CC(C)C)[C@@H](CCCCNC(=O)OCC2c3ccccc3-c3ccccc32)C(=O)O)cc1 [Compound 7, Nα-Isobutyl-Nα-(4-methoxybenzenesulfonyl)-Nε-(9-fluorenylmethoxycarbonyl)-L-lysine] | 10.6 |
| CC(C)CN([C@@H](CCCCNC(=O)OCC1c2ccccc2-c2ccccc21)C(=O)O)S(=O)(=O)c1cccc2ccccc12 [Compound 8, Nα-Isobutyl-Nα-(1-naphthalenesulfonyl)-Nε-(9-fluorenylmethoxycarbonyl)-L-lysine] | 54.9 |
| O=C(N[C@@H](CCNS(=O)(=O)c1ccc(Br)cc1)C(=O)O)OCC1c2ccccc2-c2ccccc21 [Compound 14, (S)-2-(9-Fluorenylmethoxycarbonylamino)-4-(4-bromobenzenesulfonylamino)-butanoic Acid] | 49000 |
| COC(=O)[C@H](CCCCNS(=O)(=O)c1ccc(Br)cc1)NC(=O)OCC1c2ccccc2-c2ccccc21 [Compound 15, Nα-(9-Fluorenylmethoxycarbonyl)-Nε-(4-bromobenzenesulfonyl)-L-lysine Methyl Ester] | 47000 |
| O=C(N[C@@H](CCCCNS(=O)(=O)c1ccc(Br)cc1)C(=O)O)OCC1c2ccccc2-c2ccccc21 [Compound 16, Nε-(4-Bromobenzenesulfonyl)-Nα-(9-fluorenylmethoxycarbonyl)-L-lysine] | 13000 |
| O=C(O)[C@H](CCCCNS(=O)(=O)c1ccc(Br)cc1)NS(=O)(=O)c1ccc(Br)cc1 [Compound 17, Nα,Nε-di-(4-Bromobenzenesulfonyl)-L-lysine] | 7700 |
| O=C(N[C@@H](CNS(=O)(=O)c1ccc(Br)cc1)C(=O)O)OCC1c2ccccc2-c2ccccc21 [Compound 18, (S)-2-(9-Fluorenylmethoxycarbonylamino)-3-(4-bromobenzenesulfonylamino)-propanoic Acid] | 75000 |
| NC(=O)C(CCCCNS(=O)(=O)c1ccc(Br)cc1)NC(=O)OCC1c2ccccc2-c2ccccc21 [Compound 20, (2R,2S)-(9-Fluorenylmethoxycarbonylamino)-6-(4-bromobenzenesulfonylamino)-1-hexanamide] | 23000 |
| CC(C)CN(CCCC[C@H](NC(=O)OCC1c2ccccc2-c2ccccc21)C(=O)O)S(=O)(=O)c1ccc(Br)cc1 [Compound 21, Nα-(9-Fluorenylmethoxycarbonyl)-Nε-isobutyl-Nε-(4-bromobenzenesulfonyl)-L-lysine] | 2000 |
| O=C(N[C@H](CO)CCCCNS(=O)(=O)c1ccc(Br)cc1)OCC1c2ccccc2-c2ccccc21 [Compound 22, (2S)-(9-Fluorenylmethoxycarbonylamino)-6-(4-bromobenzenesulfonylamino)-1-hexanol] | > 6000 |
| O=C(N[C@@H](CCCCNS(=O)(=O)c1ccc(Br)cc1)C(=O)O)c1cnc2cc(C(F)(F)F)ccc2c1O [Compound 23, Nα-(4-hydroxy-7-trifluoromethylquinoline-3-carbonyl)-Nε-(4-bromobenzenesulfonyl)-L-lysine] | > 50000 |
| O=C(N[C@@H](CCCCNS(=O)(=O)c1ccccc1Br)C(=O)O)OCC1c2ccccc2-c2ccccc21 [Compound 24, Nε-(2-Bromobenzenesulfonyl)-Nα-(9-fluorenylmethoxycarbonyl)-L-lysine] | 36000 |
| CC(C)c1cc(C(C)C)c(S(=O)(=O)NCCCC[C@H](NC(=O)OCC2c3ccccc3-c3ccccc32)C(=O)O)c(C(C)C)c1 [Compound 25, Nε-(2,4,6-Triisopropylbenzenesulfonyl)-Nα-(9-fluorenylmethoxycarbonyl)-L-lysine] | > 3100 |
| Cc1cc(C)c(S(=O)(=O)NCCCC[C@H](NC(=O)OCC2c3ccccc3-c3ccccc32)C(=O)O)c(C)c1 [Compound 27, Nε-(2,4,6-Trimethylbenzenesulfonyl)-Nα-(9-fluorenylmethoxycarbonyl)-L-lysine] | > 50000 |
| O=C(N[C@@H](CCCCNS(=O)(=O)c1cccc2cccnc12)C(=O)O)OCC1c2ccccc2-c2ccccc21 [Compound 28, Nε-(8-Quinolinesulfonyl)-Nα-(9-fluorenylmethoxycarbonyl)-L-lysine] | 15000 |
| O=C(Cc1c[nH]c2ccccc12)N[C@@H](CCCCNS(=O)(=O)c1ccc(Br)cc1)C(=O)O [Compound 29, Nα-(3-Indoleacetyl)-Nε-(4-bromobenzenesulfonyl)-L-lysine] | 10500 |
| O=C(CC1c2ccccc2-c2ccccc21)N[C@@H](CCCCNS(=O)(=O)c1ccc(Br)cc1)C(=O)O [Compound 30, Nα-(9-Fluorenemethylcarbonyl)-Nε-(4-bromobenzenesulfonyl)-L-lysine] | 71000 |
| O=C(N[C@@H](CCCCNS(=O)(=O)c1ccc2ccccc2c1)C(=O)O)OCC1c2ccccc2-c2ccccc21 [Compound 32, Nε-(2-Naphthalenesulfonyl)-Nα-(9-fluorenylmethoxycarbonyl)-L-lysine] | 10000 |
| O=C(N[C@@H](CCCCNS(=O)(=O)Cc1ccccc1)C(=O)O)OCC1c2ccccc2-c2ccccc21 [Compound 33, Nε-Phenylmethylsulfonyl-Nα-(9-fluorenylmethoxycarbonyl)-L-lysine] | 20000 |
| O=C(N[C@@H](CCCCNS(=O)(=O)c1cccc(C(F)(F)F)c1)C(=O)O)OCC1c2ccccc2-c2ccccc21 [Compound 34, Nε-(3-Trifluoromethylbenzenesulfonyl)-Nα-(9-fluorenylmethoxycarbonyl)-L-lysine] | 22000 |
| CC1(C)[C@@H]2CC[C@@]1(CS(=O)(=O)NCCCC[C@H](NC(=O)OCC1c3ccccc3-c3ccccc31)C(=O)O)C(=O)C2 [Compound 35, Nε-(1S)-(10-Camphorsulfonyl)-Nα-(9-fluorenylmethoxycarbonyl)-L-lysine] | 33000 |
| O=C(N[C@@H](CCCCNS(=O)(=O)c1ccc(Br)cc1)C(=O)O)C(c1ccccc1)c1ccccc1 [Compound 36, Nα-(Diphenylacetyl)-Nε-(4-bromobenzenesulfonyl)-L-lysine] | 24000 |
| O=C(O)[C@H](CCCCNS(=O)(=O)c1ccc(Br)cc1)NC(=O)C(O)(c1ccccc1)c1ccccc1 [Compound 37, Nα-(Diphenylhydroxyacetyl)-Nε-(4-bromobenzenesulfonyl)-L-lysine] | 54000 |
